As usually defined, the IC20 is the concentration needed for an effect of 20%.

The target of this test is T1, human serum SSAO (Homo sapiens, UniProt Q16853).
T1 construct: from tissue; host or cells: human serum
T1 sequence (Q16853 29-763 limits assumed): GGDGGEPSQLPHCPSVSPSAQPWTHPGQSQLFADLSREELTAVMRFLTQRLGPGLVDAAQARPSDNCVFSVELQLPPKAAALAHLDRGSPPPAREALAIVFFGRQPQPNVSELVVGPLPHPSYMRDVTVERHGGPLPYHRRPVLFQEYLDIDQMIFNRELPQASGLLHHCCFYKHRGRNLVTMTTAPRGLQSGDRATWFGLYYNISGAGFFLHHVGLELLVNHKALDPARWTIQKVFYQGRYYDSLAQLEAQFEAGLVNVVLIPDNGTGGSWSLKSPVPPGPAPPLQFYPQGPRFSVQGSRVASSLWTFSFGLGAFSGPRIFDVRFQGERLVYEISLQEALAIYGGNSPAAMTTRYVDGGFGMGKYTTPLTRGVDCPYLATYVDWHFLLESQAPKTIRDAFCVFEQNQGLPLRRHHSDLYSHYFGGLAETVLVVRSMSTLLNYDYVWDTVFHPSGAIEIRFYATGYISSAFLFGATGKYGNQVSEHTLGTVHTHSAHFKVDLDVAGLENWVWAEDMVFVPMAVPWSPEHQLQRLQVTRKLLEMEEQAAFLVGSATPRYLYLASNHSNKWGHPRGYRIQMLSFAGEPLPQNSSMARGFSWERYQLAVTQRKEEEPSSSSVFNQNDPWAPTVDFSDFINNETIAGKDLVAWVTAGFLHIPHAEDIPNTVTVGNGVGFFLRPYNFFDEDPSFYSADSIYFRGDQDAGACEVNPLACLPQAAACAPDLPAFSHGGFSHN
Briefly: radiochemical determination of SSAO activity in human serum (14C-benzylamine substrate). Format: biochemical. The note with it: 20 min pre-incubation at room temperature, 37°C 40 min. Here is the method:
In the experiment human serum was used in the following way: blood samples were collected without anticoagulant, then stored at 4°C for 15 minutes and centrifuged (4°C, 2500 g/10 min). The supernatant was stored at -80°C until the measurement of the enzyme activity.
A radiochemical procedure (Yu P.H., Zuo D.M., Biochem. Pharmacol., 1992, 43, 307-312) was adapted for determining SSAO activities in the human serum. It is based on the determination of the quantity of ^14C-benzaldehyde formed by the enzyme reaction of ^14C-benzylamine.
The preparations containing the serum and the dihydralazine enzyme inhibitor were pre-incubated at room temperature for 20 min. The enzyme reaction was started with ^14C-benzylamine substrate (- 200000 dpm/tube). […] The enzyme activity was determined by liquid scintillation counting (600 µl supernatant + 5ml Aquasafe), using the formula below: ([dpm(sample)-dpm0ʹ] x 1.6 x 10 x 1.5)/(measured substrate activity dpm x mg protein) [formula] standing for: 1.6: extraction volume; 10: molar activity; 1.5: correction factor for the incubation time; dpm: disintegrations per minute (unit of radioactivity)
The inhibition was calculated in the % inhibition compared to the control ('control' sample not containing the inhibitor compound) after correction with the background ('blank' sample). […]

With `NNc1nnc(NN)c2ccccc12` [dihydralazine], the IC20 was found to be 500 nM.

The record behind these values is EP2326328B1, “USE OF DIHYDRALAZINE FOR THE TREATMENT OF DISEASES RELATED TO ELEVATED SEMICARBAZIDE SENSITIVE AMINE-OXIDASE (SSAO) ACTIVITY” (Semmelweis Egyetem, priority 2008, dated 2010).
